According to PubChem BioAssay (NCI):
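48-hour exposure; five concentrations; linearly interpolated endpoints. GI50 marks 50% less growth. At the TGI there is no net growth.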

Columns and labels:
Experiment in all cases: NCI anticancer screen, dose series, 48 h
[1] = system: DLD-1 colon
[2] = system: DMS 114 small cell lung
[3] = system: HOP-18 NSCLC
[4] = system: KM20L2 colon
[5] = system: LXFL 529 NSCLC
[6] = system: M19-MEL melanoma
[7] = system: RXF-631 renal
[8] = system: XF 498 CNS
[9] = system: MDA-N

Compound: O=C1NC(Cc2ccc(O)cc2)C(=O)N2CCCC12 (stereo not drawn)
- TGI [1]: > 100 µM
- TGI [2]: > 100 µM
- TGI [3]: > 100 µM
- TGI [4]: > 100 µM
- TGI [5]: > 100 µM
- TGI [6]: > 100 µM
- TGI [7]: > 100 µM

Compound: Cc1nc(-n2nc(-c3ccccc3)cc2-c2ccccc2)sc1C(=O)/C=C/c1ccc(/C=C/C(=O)c2sc(-n3nc(-c4ccccc4)cc3-c3ccccc3)nc2C)cc1
- TGI [1]: 44.8 µM
- TGI [2]: > 100 µM
- TGI [4]: 36.4 µM
- TGI [5]: 67.3 µM
- TGI [6]: 63 µM
- TGI [7]: 78.9 µM
- TGI [8]: 41.4 µM

Compound: Cc1cn(C2CC(O)C(COC(=O)c3ccccc3)O2)c(=O)[nH]c1=O (stereo not drawn)
- TGI [1]: > 100 µM
- TGI [3]: > 100 µM
- TGI [4]: > 100 µM
- TGI [5]: > 100 µM
- TGI [6]: > 100 µM
- TGI [7]: > 100 µM
- TGI [8]: > 100 µM

Compound: CC(C)c1[nH]nc(C(N)=O)c1N=NN(C)C
- TGI [9]: > 100 µM

Compound: COC(=O)C(Cc1cc(OC)c(OC)c(OC)c1)C(=O)OC
- TGI [1]: > 320 µM
- TGI [2]: > 320 µM
- TGI [4]: > 320 µM
- TGI [5]: > 320 µM
- TGI [6]: > 320 µM
- TGI [7]: > 320 µM
- TGI [8]: > 320 µM

Compound: N.N.N.N.N.[Co+3].[I-].[N-]=[N+]=[N-]
- GI50 [1]: > 100 µM
- TGI [1]: > 100 µM
- GI50 [4]: > 100 µM
- TGI [4]: > 100 µM
- GI50 [5]: > 100 µM
- TGI [5]: > 100 µM

Compound: N#CCCN(c1ccc(C=Nc2ccccc2)cc1)S(=O)(=O)c1ccccc1
- TGI [1]: > 100 µM
- TGI [2]: > 100 µM
- TGI [5]: > 100 µM
- TGI [6]: > 100 µM
- TGI [8]: > 100 µM

Compound: N#Cc1cccc2c1Nc1ccccc1S2
- TGI [1]: > 100 µM
- TGI [2]: > 100 µM
- TGI [3]: > 100 µM
- TGI [4]: > 100 µM
- TGI [6]: > 100 µM
- TGI [8]: > 100 µM

Compound: CC1=CC(=O)C2=C(C)CCC3C(C)C(=O)OC3C12 (stereo not drawn)
- TGI [9]: > 100 µM

Compound: CN1c2ccccc2N(C(=O)c2ccc([N+](=O)[O-])cc2)C(CC(=O)O)c2cccn21 (stereo not drawn)
- TGI [1]: > 100 µM
- TGI [2]: > 100 µM
- TGI [4]: > 100 µM
- TGI [5]: > 100 µM
- TGI [6]: > 100 µM
- TGI [8]: > 100 µM

Compound: COC(=O)CCC(NC(=S)N/N=C(\C)c1cnc2ccccc2n1)C(=O)OC (stereo not drawn)
- TGI [1]: > 100 µM
- TGI [3]: > 100 µM
- TGI [4]: 46 µM
- TGI [5]: > 100 µM
- TGI [7]: > 100 µM
- TGI [8]: > 100 µM

Compound: Cn1c2c(c3ccccc31)CCN(CCCCN1CCCCC1)C2=O
- TGI [1]: > 100 µM
- TGI [3]: > 100 µM
- TGI [4]: > 100 µM
- TGI [5]: > 100 µM
- TGI [6]: > 100 µM
- TGI [7]: > 100 µM
- TGI [8]: > 100 µM

Compound: O=C(N/C(=C\c1ccc(Cl)cc1)c1nc2ccccc2[nH]1)c1ccccc1
- TGI [1]: 52.2 µM
- TGI [3]: 50.3 µM
- TGI [4]: 30.8 µM
- TGI [5]: 38.6 µM
- TGI [6]: 34.7 µM
- TGI [8]: 36.9 µM

Compound: CCN(CC)c1cccc2c1/C(=N/O)CCCC2
- TGI [2]: > 100 µM
- TGI [3]: > 100 µM
- TGI [4]: > 100 µM
- TGI [5]: > 100 µM
- TGI [6]: > 100 µM
- TGI [8]: > 100 µM

Compound: COc1ccc2c(c1OC)C[C@@H]1c3c(cc4c(c3-2)OCO4)CCN1C
- TGI [9]: > 100 µM

Compound: COc1cc(Nc2nc3cc(N)cc(N)c3nc2-c2ccccc2)cc(OC)c1OC
- GI50 [9]: 10.5 µM
- TGI [9]: 31.3 µM

Compound: CC(C)OP(=O)(OC(C)C)/C(Cl)=N/Nc1ccc([N+](=O)[O-])cc1
- TGI [1]: > 100 µM
- TGI [2]: > 100 µM
- TGI [4]: > 100 µM
- TGI [5]: > 100 µM
- TGI [6]: > 100 µM
- TGI [8]: > 100 µM

Compound: CCCNC(=S)/N=C/c1c(O)cc(C)oc1=O
- TGI [9]: > 100 µM

Compound: C/C(=C1/N=C(c2cc([N+](=O)[O-])ccc2Cl)N(c2cccc(C)c2)C1=O)c1cc2ccccc2oc1=O
- TGI [1]: > 100 µM
- TGI [2]: > 100 µM
- TGI [3]: > 100 µM
- TGI [4]: > 100 µM
- TGI [5]: > 100 µM
- TGI [6]: > 100 µM
- TGI [7]: > 100 µM
- TGI [8]: 81.2 µM

Compound: O=C1CSCc2sccc21
- TGI [9]: > 100 µM

Compound: CN(CCN1C(=O)c2cc([N+](=O)[O-])cc3cc([N+](=O)[O-])cc(c23)C1=O)CCN1C(=O)c2cc([N+](=O)[O-])cc3cc([N+](=O)[O-])cc(c23)C1=O
- TGI [1]: 18.8 µM
- TGI [2]: 46.9 µM
- TGI [3]: > 100 µM
- TGI [4]: > 33.5 µM
- TGI [5]: 20.1 µM
- TGI [6]: 4.4 µM
- TGI [8]: 23.1 µM

Compound: O=C1C2Nc3ccccc3SC2C(=O)N1c1ccc(Br)cc1 (stereo not drawn)
- TGI [1]: > 100 µM
- TGI [2]: 46.4 µM
- TGI [4]: > 100 µM
- TGI [5]: 82.1 µM
- TGI [6]: > 100 µM
- TGI [8]: > 100 µM

Compound: COc1ccc(/C=C(/C#N)C(N)=O)c(OC)c1
- TGI [9]: 52.6 µM

Compound: CN1C(=O)CCC1(O)C1C=CC=CC1 (stereo not drawn)
- TGI [1]: > 100 µM
- TGI [2]: > 100 µM
- TGI [4]: > 100 µM
- TGI [5]: > 100 µM
- TGI [6]: > 100 µM
- TGI [7]: > 100 µM
- TGI [8]: > 100 µM
